In the supplement of paper PMC11061612:

Key:
Assay in all cases: combination Emax (second highest fraction inhibited in the dose matrix, 72 h); higher = more inhibition; extreme values may be limits of the assay
A704 (Kidney Carcinoma) = test system: A704 (Kidney Carcinoma)
Summary of the method: (§1)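 After 24 hours at 37°C and 5% CO2 in 1536-well plates, cells in DMEM/F12 or RPMI plus 10% FBS received two-drug dose matrices for 72 hours. Viability came from CellTiter-Glo 2.0 luminescence and was scaled as inhibition, anchored at 0 by vehicle wells and at 1 by blank wells. Combination Emax is taken as the second-highest inhibition in the matrix, and Bliss excess as the observed combination effect less EA + EB − EA·EB, with EA and EB the single-agent effects.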

BT-20 (Breast Carcinoma) = test system: BT-20 (Breast Carcinoma)
Summary of the method: as §1

[1] = test system: EBC-1 (Squamous Cell Lung Carcinoma)
Summary of the method: as §1

EW-13 (Ewing's Sarcoma) = test system: EW-13 (Ewing's Sarcoma)
Summary of the method: as §1

EW-18 (Ewing's Sarcoma) = test system: EW-18 (Ewing's Sarcoma)
Summary of the method: as §1

EW-3 (Ewing's Sarcoma) = test system: EW-3 (Ewing's Sarcoma)
Summary of the method: as §1

[2] = test system: H-EMC-SS (Chondrosarcoma)
Summary of the method: as §1

[3] = test system: HC-1 (Other Blood Carcinomas)
Summary of the method: as §1

[4] = test system: HSC-2 (Oral Cavity Carcinoma)
Summary of the method: as §1

[5] = test system: HuP-T3 (Pancreatic Carcinoma)
Summary of the method: as §1

IMR-5 (Neuroblastoma) = test system: IMR-5 (Neuroblastoma)
Summary of the method: as §1

[6] = test system: KLE (Endometrial Carcinoma)
Summary of the method: as §1

[7] = test system: MFE-319 (Endometrial Carcinoma)
Summary of the method: as §1

NB7 (Neuroblastoma) = test system: NB7 (Neuroblastoma)
Summary of the method: as §1

[8] = test system: NCI-H1573 (Lung Adenocarcinoma)
Summary of the method: as §1

[9] = test system: NCI-N87 (Gastric Carcinoma)
Summary of the method: as §1

RPMI-7951 (Melanoma) = test system: RPMI-7951 (Melanoma)
Summary of the method: as §1

[10] = test system: SNU-C1 (Colorectal Carcinoma)
Summary of the method: as §1

[11] = test system: TGBC11TKB (Gastric Carcinoma)
Summary of the method: as §1

U-87-MG (Glioblastoma) = test system: U-87-MG (Glioblastoma)
Summary of the method: as §1

Structure (SMILES) | combination Emax (A704 (Kidney Carcinoma)) | combination Emax (BT-20 (Breast Carcinoma)) | combination Emax [1] | combination Emax (EW-13 (Ewing's Sarcoma)) | combination Emax (EW-18 (Ewing's Sarcoma)) | combination Emax (EW-3 (Ewing's Sarcoma)) | combination Emax [2] | combination Emax [3] | combination Emax [4] | combination Emax [5] | combination Emax (IMR-5 (Neuroblastoma)) | combination Emax [6] | combination Emax [7] | combination Emax (NB7 (Neuroblastoma)) | combination Emax [8] | combination Emax [9] | combination Emax (RPMI-7951 (Melanoma)) | combination Emax [10] | combination Emax [11] | combination Emax (U-87-MG (Glioblastoma))
COc1cccc(OCCCN)c1-c1cc(Nc2cnc(C#N)cn2)n[nH]1 [Prexasertib] + CCc1c2c(nc3ccc(O)cc13)-c1cc3c(c(=O)n1C2)COC(=O)[C@]3(O)CC [SN-38] (first compound max 1 µM, 7x7, partner max 0.3 µM) | 0.749 | 0.965 | 0.953 | 0.84 | 0.77 | 0.838 | 0.574 | 1 | 0.95 | 0.855 | 1 | 0.593 | 0.897 | 0.985 | 0.777 | 0.816 | 0.997 | 0.745 | 0.982 | 0.74
C[C@@H](c1ccc2nccn2c1)n1nnc2ncc(-c3cnn(C)c3)nc21 [Savolitinib] + CC1(C)CCC(CN2CCN(c3ccc(C(=O)NS(=O)(=O)c4ccc(NCC5CCOCC5)c([N+](=O)[O-])c4)c(Oc4cnc5[nH]ccc5c4)c3)CC2)=C(c2ccc(Cl)cc2)C1 [Venetoclax] (first compound max 1 µM, 7x7, partner max 1 µM) | 0.246 | 0.0828 | 0.968 | 0.128 | 0.229 | 0.379 | 0.183 | 0.173 | 0.186 | 0.0903 | 0.173 | 0.0864 | 0 | 0.108 | 0.203 | 0.22 | 0.13 | 0.133 | 0.0823 | 0.252
C[C@@H](c1ccc2nccn2c1)n1nnc2ncc(-c3cnn(C)c3)nc21 [Savolitinib] + Cc1c2c(nn1C)CSCc1cc(n(C)n1)CSc1cc(c3ccccc3c1)OCCCc1c(C(=O)O)n(C)c3c-2c(Cl)ccc13 [AZD5991] (first compound max 1 µM, 7x7, partner max 1 µM) | 0.256 | 0.465 | 1 | 0.313 | 0.874 | 0.558 | 0.182 | 0.216 | 0.711 | 0.189 | 0.645 | 0.162 | 0.406 | 0.462 | 0.351 | 0.22 | 0.266 | 0.396 | 0.507 | 0.288
Cn1cnc2c(F)c(Nc3ccc(Br)cc3Cl)c(C(=O)NOCCO)cc21 [Selumetinib] + C=CCn1c(=O)c2cnc(Nc3ccc(N4CCN(C)CC4)cc3)nc2n1-c1cccc(C(C)(C)O)n1 [AZD1775] (first compound max 10 µM, partner max 1 µM) | 0.488 | 0.695 | 0.923 | 0.0949 | 0.526 | 0.269 | 0.23 | 0.941 | 0.372 | 0.629 | 0.894 | 0.539 | 0.671 | 0.619 | 0.417 | 0.712 | 0.741 | 0.627 | 0.912 | 0.252
Cn1cnc2c(F)c(Nc3ccc(Br)cc3Cl)c(C(=O)NOCCO)cc21 [Selumetinib] + CC(C)n1c(=O)n(C)c2cnc3cc(F)c(-c4ccc(OCCCN5CCCCC5)nc4)cc3c21 [AZD1390] (first compound max 10 µM, 7x7, partner max 0.3 µM) | 0.246 | 0.252 | 0.934 | 0.0488 | 0.28 | 0.104 | 0.197 | 0.456 | 0.248 | 0.368 | 0.173 | 0.178 | 0.154 | 0.0793 | 0.264 | 0.3 | 0.307 | 0.635 | 0.507 | 0.215
Cn1cnc2c(F)c(Nc3ccc(Br)cc3Cl)c(C(=O)NOCCO)cc21 [Selumetinib] + CCN(CCO)CCCOc1ccc2c(Nc3cc(CC(=O)Nc4cccc(F)c4)[nH]n3)ncnc2c1 [AZD2811] (first compound max 10 µM, 7x7, partner max 1 µM) | 0.178 | 0.474 | 0.964 | 0.218 | 0.7 | 0.444 | 0.263 | 0.702 | 0.376 | 0.359 | 1 | 0.286 | 0.262 | 0.415 | 0.412 | 0.305 | 0.425 | 0.723 | 0.569 | 0.252
Cn1cnc2c(F)c(Nc3ccc(Br)cc3Cl)c(C(=O)NOCCO)cc21 [Selumetinib] + C[C@@H]1COCCN1C2=NC(=NC(=C2)C3(CC3)[S@](=N)(=O)C)C4=C5C=CNC5=NC=C4 [AZD6738] (first compound max 10 µM, 7x7, partner max 10 µM) | 0.391 | 0.576 | 0.934 | 0.623 | 0.696 | 0.822 | 0.296 | 0.793 | 0.569 | 0.517 | 1 | 0.442 | 0.752 | 0.597 | 0.663 | 0.632 | 0.873 | 0.641 | 0.854 | 0.457
CC(=O)Nc1cccc(-n2c(=O)n(C3CC3)c(=O)c3c(Nc4ccc(I)cc4F)n(C)c(=O)c(C)c32)c1 [Trametinib] + Cc1nc(-c2cn3c(n2)-c2ccc(-c4cnn(C(C)(C)C(N)=O)c4)cc2OCC3)n(C(C)C)n1 [Taselisib] (first compound max 1 µM, 7x7, partner max 10 µM) | 0.892 | 1 | 1 | 0.262 | 0.637 | 0.364 | 0.991 | 0.665 | 1 | 0.741 | 0.368 | 0.619 | 0.799 | 0.577 | 0.89 | 0.913 | 0.931 | 0.79 | 0.86 | 0.837
CC1(C)CCC(CN2CCN(c3ccc(C(=O)NS(=O)(=O)c4ccc(NCC5CCOCC5)c([N+](=O)[O-])c4)c(Oc4cnc5[nH]ccc5c4)c3)CC2)=C(c2ccc(Cl)cc2)C1 [Venetoclax] + C1CN(CCC1(C(=O)N[C@@H](CCO)C2=CC=C(C=C2)Cl)N)C3=NC=NC4=C3C=CN4 [Capivasertib] (first compound max 1 µM, 7x7, partner max 3 µM) | 0.318 | 0.62 | 0.317 | 0.213 | 0.662 | 0.683 | 0.413 | 0.452 | 0.364 | 0.166 | 0.19 | 0.315 | 0.321 | 0.056 | 0.194 | 0.521 | 0.472 | 0.428 | 0.153 | 0.403
CC1(C)CCC(CN2CCN(c3ccc(C(=O)NS(=O)(=O)c4ccc(NCC5CCOCC5)c([N+](=O)[O-])c4)c(Oc4cnc5[nH]ccc5c4)c3)CC2)=C(c2ccc(Cl)cc2)C1 [Venetoclax] + C=CCn1c(=O)c2cnc(Nc3ccc(N4CCN(C)CC4)cc3)nc2n1-c1cccc(C(C)(C)O)n1 [AZD1775] (first compound max 1 µM, partner max 1 µM) | 0.463 | 0.672 | 0.248 | 0.129 | 0.587 | 0.819 | 0.223 | 1 | 0.833 | 0.399 | 0.924 | 0.51 | 0.858 | 0.722 | 0.31 | 0.8 | 0.731 | 0.555 | 0.942 | 0.265
CC1(C)CCC(CN2CCN(c3ccc(C(=O)NS(=O)(=O)c4ccc(NCC5CCOCC5)c([N+](=O)[O-])c4)c(Oc4cnc5[nH]ccc5c4)c3)CC2)=C(c2ccc(Cl)cc2)C1 [Venetoclax] + CCN(CCO)CCCOc1ccc2c(Nc3cc(CC(=O)Nc4cccc(F)c4)[nH]n3)ncnc2c1 [AZD2811] (first compound max 1 µM, 7x7, partner max 1 µM) | 0.167 | 0.294 | 0.225 | 0.109 | 0.707 | 0.779 | 0.164 | 0.712 | 0.327 | 0.197 | 1 | 0.273 | 0.243 | 0.259 | 0.215 | 0.242 | 0.454 | 0.266 | 0.424 | 0.265
CC1(C)CCC(CN2CCN(c3ccc(C(=O)NS(=O)(=O)c4ccc(NCC5CCOCC5)c([N+](=O)[O-])c4)c(Oc4cnc5[nH]ccc5c4)c3)CC2)=C(c2ccc(Cl)cc2)C1 [Venetoclax] + CN(C)CCCOc1ccc(-c2ccc3ncc4c(c3c2)n(C2CCOCC2)c(=O)n4C)cn1 [AZD0156] (first compound max 1 µM, 7x7, partner max 1 µM) | 0.185 | 0.132 | 0.275 | 0.062 | 0.389 | 0.799 | 0.206 | 0.207 | 0.722 | 0.145 | 0.0957 | 0.352 | 0.243 | 0.18 | 0.168 | 0.461 | 0.304 | 0.163 | 0.235 | 0.203
